Details: in isopropanol

C=NCC#N
Details	solubility (mole fraction)
278.15 K	0.00069
283.15 K	0.000826
288.15 K	0.00106
293.15 K	0.00129
298.15 K	0.00153
303.15 K	0.00188
308.15 K	0.00229
313.15 K	0.00279
318.15 K	0.00338
323.15 K	0.00411

Reference: BigSolDB 2.1
